# Laboratory results: PubChem BioAssay (NCI)
#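 Growth conditions: 96-well plates. Treatment: test compound, 48 hours, 5 concentrations. Analysis: linear interpolation between bracketing concentrations; unreached endpoints set to highest concentration. TGI denotes the concentration required for complete inhibition of growth.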
# Assays:
# Assay in all cases: NCI-60 cell line screen, 48 h
# [1] = test system: SF-268 CNS
# [2] = test system: SK-MEL-5 melanoma
# [3] = test system: RPMI-8226 leukemia
# [4] = test system: SR leukemia
# [5] = test system: SK-OV-3 ovarian
# [6] = test system: CCRF-CEM leukemia
# [7] = test system: SK-MEL-28 melanoma
# [8] = test system: SNB-19 CNS
# [9] = test system: UACC-62 melanoma
# [10] = test system: OVCAR-3 ovarian
# [11] = test system: NCI-H226 lung
# [12] = test system: MDA-MB-435
# [13] = test system: NCI-H522 lung
# [14] = test system: IGROV1 ovarian
# [15] = test system: SF-539 CNS
# [16] = test system: ACHN renal
# [17] = test system: SF-295 CNS
# [18] = test system: HOP-92 NSCLC
# [19] = test system: HT29 colon
# [20] = test system: HS 578T breast
# [21] = test system: TK-10 renal
# [22] = test system: EKVX NSCLC
# [23] = test system: DU-145 prostate
# [24] = test system: HCC-2998 colon
# [25] = test system: MDA-MB-231 breast
# [26] = test system: A498 renal
# [27] = test system: OVCAR-4 ovarian
# [28] = test system: HCT-116 colon
# [29] = test system: KM12 colon
# [30] = test system: MALME-3M melanoma
# [31] = test system: T-47D breast
# [32] = test system: SK-MEL-2 melanoma
# [33] = test system: NCI-H23 lung
# [34] = test system: MCF7 breast
# [35] = test system: LOX IMVI melanoma
# [36] = test system: COLO 205 colon
# [37] = test system: BT-549 breast
# [38] = test system: HOP-62 NSCLC
# [39] = test system: A549 NSCLC
# [40] = test system: OVCAR-8 ovarian
# [41] = test system: K-562 leukemia
# [42] = test system: OVCAR-5 ovarian
# [43] = test system: HL-60(TB) leukemia
# [44] = test system: U251 CNS
# [45] = test system: SN12C renal
# [46] = test system: MOLT-4 leukemia
# [47] = test system: NCI/ADR-RES ovarian
# [48] = test system: NCI-H460 lung
# [49] = test system: MDA-N
# [50] = test system: CAKI-1 renal
# [51] = test system: M14 melanoma
# [52] = test system: HCT-15 colon
# [53] = test system: UACC-257 melanoma
# [54] = test system: SW-620 colon
# [55] = test system: SNB-75 CNS
# [56] = test system: RXF 393 renal
# [57] = test system: UO-31 renal
# [58] = test system: PC-3 prostate
# [59] = test system: 786-0 renal
structure (smiles),measurement,setting,value
CN(C)CCN(c1ccccn1)c1ccccn1,TGI,[1],> 100 µM
same,TGI,[2],> 100 µM
same,TGI,[3],> 100 µM
same,TGI,[4],> 100 µM
same,TGI,[5],> 100 µM
same,TGI,[6],> 100 µM
same,TGI,[7],> 100 µM
same,TGI,[8],> 100 µM
same,TGI,[9],> 100 µM
same,TGI,[10],> 100 µM
same,TGI,[11],> 100 µM
same,TGI,[12],> 100 µM
same,TGI,[13],> 100 µM
same,TGI,[14],> 100 µM
same,TGI,[15],> 100 µM
same,TGI,[16],> 100 µM
same,TGI,[17],> 100 µM
same,TGI,[18],> 100 µM
same,TGI,[19],> 100 µM
same,TGI,[20],> 100 µM
same,TGI,[21],> 100 µM
same,TGI,[22],> 100 µM
same,TGI,[23],> 100 µM
same,TGI,[24],> 100 µM
same,TGI,[25],> 100 µM
same,TGI,[26],> 100 µM
same,TGI,[27],> 100 µM
same,TGI,[28],> 100 µM
same,TGI,[29],> 100 µM
same,TGI,[30],> 100 µM
same,TGI,[31],> 100 µM
same,TGI,[32],> 100 µM
same,TGI,[33],> 100 µM
same,TGI,[34],> 100 µM
same,TGI,[35],> 100 µM
same,TGI,[36],> 100 µM
same,TGI,[37],> 100 µM
same,TGI,[38],> 100 µM
same,TGI,[39],> 100 µM
same,TGI,[40],> 100 µM
same,TGI,[41],> 100 µM
same,TGI,[42],> 100 µM
same,TGI,[43],> 100 µM
same,TGI,[44],> 100 µM
same,TGI,[45],> 100 µM
same,TGI,[46],> 100 µM
same,TGI,[47],> 100 µM
same,TGI,[48],> 100 µM
same,TGI,[49],> 100 µM
same,TGI,[50],> 100 µM
same,TGI,[51],> 100 µM
same,TGI,[52],> 100 µM
same,TGI,[53],> 100 µM
same,TGI,[54],> 100 µM
same,TGI,[55],> 100 µM
same,TGI,[56],> 100 µM
same,TGI,[57],> 100 µM
same,TGI,[58],> 100 µM
same,TGI,[59],> 100 µM
Cc1ccc2c(c1C)C(=O)C1(Cc3cc4c(cc3C1=O)CCC4)C2 (centres undefined),TGI,[1],> 100 µM
same,TGI,[2],> 100 µM
same,TGI,[3],> 100 µM
same,TGI,[4],> 100 µM
same,TGI,[5],> 100 µM
same,TGI,[6],> 100 µM
same,TGI,[7],> 100 µM
same,TGI,[8],> 100 µM
same,TGI,[9],> 100 µM
same,TGI,[10],> 100 µM
same,TGI,[11],> 100 µM
same,TGI,[12],> 100 µM
same,TGI,[13],> 100 µM
same,TGI,[14],> 100 µM
same,TGI,[15],> 100 µM
same,TGI,[16],> 100 µM
same,TGI,[17],> 100 µM
same,TGI,[18],> 100 µM
same,TGI,[19],> 100 µM
same,TGI,[20],> 100 µM
same,TGI,[21],> 100 µM
same,TGI,[22],> 100 µM
same,TGI,[23],> 100 µM
same,TGI,[24],> 100 µM
same,TGI,[25],> 100 µM
same,TGI,[26],> 100 µM
same,TGI,[27],> 100 µM
same,TGI,[28],> 100 µM
same,TGI,[29],> 100 µM
same,TGI,[30],> 100 µM
same,TGI,[31],> 100 µM
same,TGI,[32],> 100 µM
same,TGI,[33],> 100 µM
same,TGI,[34],> 100 µM
same,TGI,[36],> 100 µM
same,TGI,[37],> 100 µM
same,TGI,[39],> 100 µM
same,TGI,[40],> 100 µM
same,TGI,[41],> 100 µM
same,TGI,[42],> 100 µM
same,TGI,[43],> 100 µM
same,TGI,[44],> 100 µM
same,TGI,[45],> 100 µM
same,TGI,[46],> 100 µM
same,TGI,[47],> 100 µM
same,TGI,[48],> 100 µM
same,TGI,[49],> 100 µM
same,TGI,[50],> 100 µM
same,TGI,[51],> 100 µM
same,TGI,[52],> 100 µM
same,TGI,[53],> 100 µM
same,TGI,[54],> 100 µM
same,TGI,[55],> 100 µM
same,TGI,[56],> 100 µM
same,TGI,[57],> 100 µM
same,TGI,[58],> 100 µM
same,TGI,[59],> 100 µM
COCC([C@@H](O)C(O)C(=O)NCC[C@@H](C)c1nc(/C=C/CC2OC3(C[C@H](O)C2C)OC(C(C[C@H](O)C(C)[C@H](O)C(C)/C=C(C)/C(C)=C/C=C/C(C)=C/C#N)OC)[C@@H](OP(=O)(O)O)C3(C)C)co1)N(C)C (some centres undefined),TGI,[1],0.000344 µM
same,TGI,[5],0.00154 µM
same,TGI,[7],0.000323 µM
same,TGI,[8],0.000343 µM
same,TGI,[9],0.000341 µM
same,TGI,[10],0.000326 µM
same,TGI,[11],0.000282 µM
same,TGI,[12],0.000336 µM
same,TGI,[13],0.000308 µM
same,TGI,[14],0.000296 µM
same,TGI,[15],0.00034 µM
same,TGI,[16],0.000394 µM
same,TGI,[17],0.000328 µM
same,TGI,[18],0.000316 µM
same,TGI,[19],0.000297 µM
same,TGI,[20],0.000391 µM
same,TGI,[21],0.00024 µM
same,TGI,[22],0.000326 µM
same,TGI,[23],0.000322 µM
same,TGI,[24],0.000325 µM
same,TGI,[25],0.000562 µM
same,TGI,[26],0.00333 µM
same,TGI,[27],0.00274 µM
same,TGI,[28],0.000315 µM
same,TGI,[29],0.000331 µM
same,TGI,[30],0.000316 µM
same,TGI,[31],0.00195 µM
same,TGI,[32],0.000333 µM
same,TGI,[33],0.0021 µM
same,TGI,[34],0.000347 µM
same,TGI,[35],0.000561 µM
same,TGI,[36],0.000309 µM
same,TGI,[37],0.000312 µM
same,TGI,[39],0.00147 µM
same,TGI,[40],0.000423 µM
same,TGI,[42],0.000345 µM
same,TGI,[43],0.00207 µM
same,TGI,[44],0.000332 µM
same,TGI,[45],0.00034 µM
same,TGI,[46],0.00248 µM
same,TGI,[47],0.00258 µM
same,TGI,[48],0.000272 µM
same,TGI,[49],0.000358 µM
same,TGI,[50],0.000325 µM
same,TGI,[51],0.000323 µM
same,TGI,[52],0.000462 µM
same,TGI,[53],0.00232 µM
same,TGI,[54],0.000327 µM
same,TGI,[55],0.000327 µM
same,TGI,[57],0.00279 µM
same,TGI,[58],0.000321 µM
same,TGI,[59],0.000314 µM
O=c1c2c3c(sc2[nH]c(=S)n1-c1ccccc1)CCCc1ccc([N+](=O)[O-])cc1-3,TGI,[1],> 100 µM
same,TGI,[2],> 100 µM
same,TGI,[3],62.7 µM
same,TGI,[4],85.8 µM
same,TGI,[5],> 100 µM
same,TGI,[7],> 100 µM
same,TGI,[8],> 100 µM
same,TGI,[9],85 µM
same,TGI,[10],> 100 µM
same,TGI,[11],> 100 µM
same,TGI,[12],> 100 µM
same,TGI,[13],36.5 µM
same,TGI,[14],27.3 µM
same,TGI,[16],> 100 µM
same,TGI,[17],> 100 µM
same,TGI,[18],76.6 µM
same,TGI,[19],61.3 µM
same,TGI,[20],> 100 µM
same,TGI,[21],> 100 µM
same,TGI,[22],> 100 µM
same,TGI,[23],> 100 µM
same,TGI,[24],77.3 µM
same,TGI,[25],> 100 µM
same,TGI,[26],> 100 µM
same,TGI,[27],> 100 µM
same,TGI,[28],> 100 µM
same,TGI,[29],> 100 µM
same,TGI,[30],> 100 µM
same,TGI,[31],37.1 µM
same,TGI,[32],> 100 µM
same,TGI,[33],> 100 µM
same,TGI,[34],> 100 µM
same,TGI,[35],62.2 µM
same,TGI,[36],> 100 µM
same,TGI,[37],72.6 µM
same,TGI,[38],> 100 µM
same,TGI,[39],> 100 µM
same,TGI,[40],> 100 µM
same,TGI,[41],35.3 µM
same,TGI,[42],> 100 µM
same,TGI,[43],50.8 µM
same,TGI,[44],> 100 µM
same,TGI,[45],> 100 µM
same,TGI,[46],52 µM
same,TGI,[47],74 µM
same,TGI,[48],> 100 µM
same,TGI,[49],> 100 µM
same,TGI,[50],> 100 µM
same,TGI,[51],> 100 µM
same,TGI,[52],72.7 µM
same,TGI,[53],> 100 µM
same,TGI,[54],25.4 µM
same,TGI,[56],38.7 µM
same,TGI,[57],> 100 µM
same,TGI,[58],> 100 µM
same,TGI,[59],> 100 µM
